In patent publication US20180296537A1, “METHODS AND COMPOSITIONS FOR DIAGNOSING, TREATING, AND MONITORING TREATMENT OF SHANK3 DEFICIENCY ASSOCIATED DISORDERS” (Novartis AG, priority 2015, published 2018):

Legend:
CA1 neurons = assay: mEPSC recordings from shRNA-expressing CA1 neurons in hippocampal organotypic slice cultures; assay type: cell-based, mouse; conditions: Shank3 knock down neurons; overnight 4 μg/ml SC79
Description: Organotypice slices and cell cultures were transferred from growth medium to an interface chamber containing ACSF equilibrated with 95% O2/5% CO2 containing the following (in mM): 124 NaCl, 2.7 KCl, 2 CaCl2, 1.3 MgCl2, 26 NaHCO3, 0.4 NaH2PO4, 18 glucose, 4 ascorbate. Recordings were performed with ACSF in a recording chamber at a temperature of 35° C. at a perfusion rate of 1-2 ml/min. Neurons were visually identified with infrared video microscopy using an upright microscope equipped with a 40× objective (Olympus, Tokyo, Japan). Patch electrodes (3-5 MΩ) were pulled from borosilicate glass tubing. […]
Whole cell patch-clamp recordings were excluded if the access resistance exceeded 13 MΩ and changed more than 20% during the recordings. Data were recorded with a MultiClamp 700B (Molecular Devices) amplifier, filtered at 0.2 kHz, and digitised at 10 kHz. Data were acquired and analysed with Clampex 10.0, Clampfit 10.0 (Molecular Devices) and the Mini Analysis Program (Synaptosoft, Decatur, Ga.). […]
Given that SC79 and TG003 were able to recover spine numbers in Shank3 knock down neurons, the reinstatement of synaptic transmission was examined next. First, miniature excitatory postsynaptic currents (mEPSCs) were recorded from shRNA-expressing CA1 neurons in hippocampal organotypic slice cultures. […]

[1] = tested on: IGF-signaling impaired zebrafish model; conditions: cited from earlier work
Akt = assay: In vivo Akt phosphorylation in Shank3^ΔC/ΔC mice; design: species or system mouse; conditions: 30 mg/kg TG003 intraperitoneal
Excerpt: To determine whether the above findings extend to autism spectrum disorder (ASD)-like behaviors, a Shank3-deficient mouse model was generated by ablation of Shank3 exon 21 (FIGS. 8A and 8B) as previously described (Kouser et al., Journal of Neuroscience 33, 18448-18468, 2013; Duffney et al., Cell reports 11, 1400-1413, 2015). To generate Shank3 exon 21-deleted mice, the exon 21 genomic region of Shank3 (2464 bp in size) was replaced by homologous recombination with a loxP-TK_Neo-loxP cassette. The Neo cassette was flanked by a 3 kb 5′ homology arm and a 1.6 kb 3′ homology arm. Linearized targeting vector DNA was electroporated into C57BL6/J ES cells, and G418 resistant ES clones were first screened by nested PCR, and then subjected to Southern blot analysis. For Southern analysis, genomic DNA was digested with restriction enzyme(s), and hybridized with probes positioned outside the 5′ and 3′ homologous regions. Targeted ES clones were used for blastocyst injection, and chimeric males were mated with transgenic Cre-expressing C57B1/6 mice females to remove the neomycin resistance cassette. Animals without the neo cassette were used as F1 mice to establish the Shank3 exon 21-deleted (Shank3^ΔC/ΔC) colony.
The major Shank3 isoforms were absent in the homozygous mice (Shank3^ΔC/ΔC), while faster-migrating, truncated fragments were detected (FIG. 8C).

Shank3^ΔC/ΔC mice = assay: Spontaneous self-grooming; assay type: in vivo, mouse; conditions: 10 minute interval; TG003-treated Shank3^ΔC/ΔC mice
Description: To monitor spontaneous self-grooming, mice were placed in a clean cage (identical to the home cage), with minimal bedding to discourage digging, which was then placed in the sound-proof box for video monitoring. Animals were habituated in the new cage for 10 minutes before self-grooming was monitored during another 10 minutes. Cumulative grooming time was reported for this second 10 minute period.

In the case of `CCOC(=O)C1=C(N)Oc2ccc(Cl)cc2C1C(C#N)C(=O)OCC` (stereo not shown) [SC79], the mEPSC frequency (CA1 neurons) is given as “completely restored mEPSC frequency to control levels” and the habituation learning [1] is given as “restore habituation learning”.
With `CCN1/C(=C/C(C)=O)Sc2ccc(OC)cc21` [TG003, (Z)-1-(3-ethyl-5-methoxy-2,3-dihydrobenzothiazol-2-ylidene)propan-2-one] the “Akt phosphorylation in vivo” value (Akt) was “increases Akt phosphorylation” and the self-grooming (Shank3^ΔC/ΔC mice) was “significantly decreased self-grooming although not to wild type frequency”.
